Consider seven molecules from ChEMBL document CHEMBL1201862, “PubChem BioAssay data set” (2004).

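Growth conditions: 96-well plates. Treatment: test compound, 48 hours, 5 concentrations. Analysis: linear interpolation between bracketing concentrations; unreached endpoints set to highest concentration. Here, GI50 denotes the concentration required for 50% inhibition of growth.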 Active and inactive are the calls of the source. Cut-off read from the data, not from the text of the source: active = GI50 up to about 1.1 µM and inactive = higher.

Test systems include SF-295; A549; SR; TK-10; CAKI-1; RPMI-8226; HOP-92; 786-0; KM12; SN12C; SNB-75; EKVX; SK-MEL-28; SF-268; SNB-19; HCT-116; HOP-62; OVCAR-3; OVCAR-8; NCI-H522.
Holding throughout (assay): DTP human tumour cell line panel, 48 h

Broadly, the GI50 is the concentration at which growth is held to half of that of the control. With `[O-][S+]1c2ccccc2N=C(c2ccc(Cl)cc2)CC1c1cccs1` (stereo not drawn), the GI50 with SF-295 is 16.6 µM (inactive); with A549, 32.4 µM (inactive); in the experiment with SR it was 7.01 µM (inactive); in the experiment with TK-10, 39.3 µM (inactive); in the experiment with CAKI-1, 21.4 µM (inactive); in the experiment with RPMI-8226, 17 µM (inactive). In addition, the GI50 in the experiment on HOP-92 is 19.7 µM (inactive); in the experiment with 786-0, 15 µM (inactive); with KM12, 14.7 µM (inactive); in the experiment with SN12C it was 19 µM (inactive); in the experiment with SNB-75, 46.7 µM (inactive); in the experiment with EKVX it was 35.4 µM (inactive). Further, the GI50 in the experiment on SK-MEL-28 is 19.3 µM (inactive); in the experiment on SF-268 it was 29.2 µM (inactive); in the experiment on SNB-19 it was 21.1 µM (inactive); with HCT-116, 10.9 µM (inactive); in the experiment with HOP-62, 79.3 µM (inactive); in the experiment with OVCAR-3 it was 1.68 µM (inactive). In addition, the results for the GI50 in the experiment with OVCAR-8 and in the experiment with NCI-H522 were 17.8 µM (inactive) and 27.4 µM (inactive), respectively.

Regarding `COc1ccc(/C=C2/SC(c3c(O)ccc4ccccc34)N(NC(=O)CCCCCCCCC(=O)NN3C(=O)/C(=C\c4ccc(OC)c(OC)c4)SC3c3c(O)ccc4ccccc34)C2=O)cc1OC` (stereo not drawn), the GI50 was 1.39 µM (inactive) with SF-295; 1.44 µM (inactive) with A549; 0.0962 µM (active) in the experiment with SR; 10.4 µM (inactive) with TK-10; 1.22 µM (inactive) in the experiment on CAKI-1; 0.995 µM (active) in the experiment on RPMI-8226. For the same molecule, the GI50 with HOP-92 is 1.09 µM (active); in the experiment with 786-0, 0.519 µM (active); in the experiment on KM12 it was 5.16 µM (inactive); with SN12C it was 3.94 µM (inactive); in the experiment with SNB-75, 8.53 µM (inactive); in the experiment with EKVX, 2.12 µM (inactive). Besides, the GI50 in the experiment on SK-MEL-28 was 2.98 µM (inactive); in the experiment with SF-268, 0.418 µM (active); in the experiment with SNB-19, 9.2 µM (inactive); in the experiment with HCT-116, 0.345 µM (active); with HOP-62, 0.65 µM (active); in the experiment with OVCAR-3, 0.33 µM (active). The figures for the GI50 in the experiment with OVCAR-8 and in the experiment with NCI-H522 were 0.553 µM (active) and 0.472 µM (active), respectively.

As for `Cn1nc2ccc3nccc(N(CCO)CCO)c3c2n1`, the GI50 in the experiment with SF-295, in the experiment with A549, in the experiment with SR, in the experiment on TK-10, with CAKI-1 and with RPMI-8226 was > 100 µM (inactive) throughout. For the same molecule, the GI50 in the experiment with HOP-92, with 786-0, with KM12, in the experiment with SN12C, in the experiment on SNB-75 and in the experiment with EKVX was > 100 µM (inactive) each time. Moreover, the GI50 in the experiment on SK-MEL-28, in the experiment on SF-268, in the experiment with SNB-19, in the experiment with HCT-116, in the experiment with HOP-62 and with OVCAR-3 was > 100 µM (inactive) throughout. Also, the GI50 with OVCAR-8 and in the experiment with NCI-H522 was > 100 µM (inactive) in each case.

For `Cc1ccc(C(=O)N/N=C2/C(=O)c3c4ccccc4cc4cccc2c34)cc1`, the GI50 is 19.5 µM (inactive) in the experiment with SF-295; 32.4 µM (inactive) with A549; 1.99 µM (inactive) in the experiment on SR; 25.2 µM (inactive) with TK-10; 25.4 µM (inactive) in the experiment on CAKI-1; 22 µM (inactive) in the experiment with RPMI-8226. Moreover, the GI50 is 46.6 µM (inactive) with HOP-92; 14.2 µM (inactive) in the experiment on 786-0; 3.89 µM (inactive) in the experiment on KM12; 21.8 µM (inactive) in the experiment on SN12C; 26.7 µM (inactive) in the experiment with SNB-75; 40.2 µM (inactive) with EKVX. In addition, the GI50 with SK-MEL-28 is 17.7 µM (inactive); in the experiment on SF-268 it was 18.7 µM (inactive); with SNB-19 it was 27.6 µM (inactive); in the experiment with HCT-116 it was 4.78 µM (inactive); in the experiment with HOP-62, 16.2 µM (inactive); with OVCAR-3, 22.5 µM (inactive). Moreover, the GI50 in the experiment with OVCAR-8 is 22.4 µM (inactive); in the experiment with NCI-H522, 18 µM (inactive).

Regarding `COc1cc(OC)c(OC)cc1/C=C\c1ccnc2ccccc12`, the GI50 in the experiment on SF-295 was 0.48 µM (active); with A549 it was 0.849 µM (active); in the experiment with SR, 0.933 µM (active); in the experiment with TK-10, 2.17 µM (inactive); in the experiment with CAKI-1, 1.05 µM (active); in the experiment with RPMI-8226, 0.577 µM (active). Also, the GI50 in the experiment with HOP-92 was 1.21 µM (inactive); with 786-0, 0.687 µM (active); in the experiment on KM12 it was 0.675 µM (active); in the experiment on SN12C it was 0.622 µM (active); with SNB-75 it was 0.335 µM (active); with EKVX, 2.17 µM (inactive). For the same molecule, the GI50 in the experiment on SK-MEL-28 was 0.782 µM (active); with SF-268, 0.838 µM (active); in the experiment on SNB-19, 1.01 µM (active); in the experiment with HCT-116, 0.574 µM (active); in the experiment with HOP-62 it was 0.582 µM (active); with OVCAR-3, 0.387 µM (active). Moreover, the GI50 with OVCAR-8 is 1.25 µM (inactive); with NCI-H522 it was 0.333 µM (active).

Consider `Cc1cccc(C)c1NC(=O)CCc1nnc2s/c(=C\c3ccc(N(C)C)cc3)c(=O)n12`, for which the GI50 was 56.1 µM (inactive) in the experiment with SF-295; > 100 µM (inactive) in the experiment with A549; > 100 µM (inactive) in the experiment with SR; > 100 µM (inactive) in the experiment on TK-10; > 100 µM (inactive) with CAKI-1; 66.2 µM (inactive) with RPMI-8226. For the same molecule, the GI50 in the experiment on HOP-92, in the experiment with 786-0, in the experiment on KM12, in the experiment with SN12C, in the experiment with SNB-75 and in the experiment on SK-MEL-28 was > 100 µM (inactive) each time. The GI50 is 59.2 µM (inactive) with SF-268; > 100 µM (inactive) in the experiment with SNB-19; > 100 µM (inactive) in the experiment on HCT-116; > 100 µM (inactive) in the experiment on HOP-62; 56.1 µM (inactive) in the experiment on OVCAR-3; > 100 µM (inactive) in the experiment on OVCAR-8. The GI50 in the experiment with NCI-H522 is > 100 µM (inactive).

With `COc1cc(C=O)cc(/C=N/c2ccc(Br)cc2)c1O`, the GI50 in the experiment with SF-295 is 2.52 µM (inactive); in the experiment with A549, 4.85 µM (inactive); in the experiment with SR, 2.68 µM (inactive); with TK-10, 32.4 µM (inactive); with CAKI-1, 2.93 µM (inactive); with RPMI-8226, 3.33 µM (inactive). Moreover, the GI50 in the experiment with HOP-92 is 3.53 µM (inactive); in the experiment with KM12 it was 10.2 µM (inactive); with SN12C, 4.13 µM (inactive); with SNB-75 it was 23.8 µM (inactive); with EKVX it was 13.6 µM (inactive); in the experiment on SK-MEL-28, 6.71 µM (inactive). For the same molecule, the GI50 in the experiment with SF-268 is 1.66 µM (inactive); in the experiment with SNB-19, 12.7 µM (inactive); in the experiment with HCT-116, 6.79 µM (inactive); in the experiment on HOP-62, 11.7 µM (inactive); in the experiment on OVCAR-3, 13.5 µM (inactive); in the experiment on OVCAR-8, 2.86 µM (inactive). Further, the GI50 in the experiment on NCI-H522 is 0.995 µM (active).
